In patent US20260258025A1, “INHIBITORS OF TDP-43 AND TAU AGGREGATION” (Aquinnah Pharmaceuticals, inc., priority 2023, published 2026):
Values belong to the compound of their own block, whether it stands above or below them. Where a SMILES comes first, the peptide text is derived from it. The star is where a group is joined. Cbz = O=C(OCc1ccccc1)*

Key:
Format in all cases: cell-based
[1] = test system: TDP-43 splicing function; assay: qRT-PCR of TDP-43 sentinel transcripts (STMN2, ELAVL3, PFKP) in MG-132 challenged human motor neurons; design: effect of stressor on splicing changes associated with TDP-43 loss of function (qPCR): dose or concentration left out as unconfirmed; conditions: human motor neurons, relative to unstressed
Description: (§1) Cell culture and differentiation of iPS Cells into motor neurons. Pluripotent stem cells were grown with mTeSR Plus medium on tissue culture dishes coated with Matrigel, and maintained in 5% CO2 incubators at 37° C. Stem cells were passaged as small aggregates of cells after 1 mM EDTA treatment. […] was added to the cultures for 16-24 h after dissociation to prevent cell death. The iP11NA iPS cell line was acquired from ALSTEM. This cell line was generated from pre-made footprint-free human iPS cells with DOX inducible Ngn2 that has been stably integrated into the human AAVS1 “Safe Harbor” site, and provides a convenient means to differentiate human iPS cells into neurons rapidly and efficiently. Motor neuron differentiation was achieved using a modified 5-day strategy.
(§2) This approach relies on neural induction through small molecule inhibition of SMAD signaling, accelerated neural differentiation through forced Ngn2 expression, and motor neuron patterning through the activation of retinoic acid and Sonic Hedgehog signaling pathways. In brief, pluripotent stem cells were dissociated to single cells using accutase and plated at a density of 80,000 cells per cm^2 on Matrigel-coated culture plates with mTeSR Plus medium supplemented with ROCK inhibitor (10 μM Y-27632, ATCC). When cells reached 50% confluency, medium was changed to differentiation medium BrainPhys medium supplemented with N2-A, SM1, […]. This time point was defined as day 0 (d0) of motor neuron differentiation. Treatment with small molecules was carried out as follows: 2 μg/mL Doxycyline, 10 μM SB431542, 100 nM LDN-193189, […] and 1 μM Smoothend agonist and 10 uM Edu. The full list of materials and their descriptions is included below in Table 5.
Total RNA was isolated from d14 motor neurons for qRT-PCR assays using TaqMan™ Fast Advanced Cells-to-CT™ Kit according to manufacturer's instructions. 7500 neurons per well of 96-well culture were routinely used for processing. qRT-PCR was then performed using multiplex assays from IDT using PrimeTime™ Gene Expression Master Mix (IDT) on a QuantStudio6Pro system. Quantitative levels for all genes assayed were normalized using GAPDH expression. […] Primers and probes used in this study are in Table 5.
To this end, we first examined whether proteasome inhibition, which triggers TDP-43 nuclear depletion, also leads to splicing defects associated with TDP-43 loss-of function. For comparison, we also treated human motor neurons with puromycin, which recruits TDP-43 to stress granules in the cytoplasm. We chose to analyze several transcripts that have relevant connections to ALS biology including STMN26,12, PFKP19, and ELAVL320,21. We used quantitative reverse transcription-polymerase chain reaction (qRT-PCR) to validate that in MG-132-treated motor neurons these transcripts were altered like in ALS patients.
Using this method, we next obtained RNA from independent motor neuron biological replicates after proteasome inhibition and Compound 183 treatment to determined by qRT-PCR the relative abundance of these transcripts. […] A dose-responsive effect was further tested for Compound 183 using qRT-PCR in this model. […] Collectively, the data support the notion that Compound 183 promotes TDP-43 nuclear function under proteotoxic stress.

[2] = test system: TDP-43 nuclear localization; assay: TDP-43 localization analysis by immunofluorescence in MG-132 challenged iP11NA human motor neurons; conditions: 1 μM MG-132 for 20 hours, human motor neurons, vs unstressed
Description: as §1
as §2, with “The full list of materials and their descriptions is included below in Table 5.” left out
A dose-responsive effect was further tested for Compound 183 using quantitative imaging analysis on the CellInsight™ CX7 High Content Analysis Platform. By comparing the intensity of TDP-43 staining in the nucleus and cytoplasm of human motor neurons, we determined Compound 183 could maintain nuclear TDP-43 from 370 nM-10 μM in the proteasome challenged motor neurons (see FIG. 2).

[3] = test system: insoluble TDP-43; assay: Cell fractionation and immunoblot of TDP-43 in MG-132 challenged human motor neurons; conditions: MG-132 1 μM, vs unstressed
Description: Cell culture and differentiation of iPS Cells into motor neurons. Pluripotent stem cells were grown with mTeSR Plus medium on tissue culture dishes coated with Matrigel, and maintained in 5% CO2 incubators at 37° C. Stem cells were passaged as small aggregates of cells after 1 mM EDTA treatment. […] was added to the cultures for 16-24 h after dissociation to prevent cell death. The iP11NA iPS cell line was acquired from ALSTEM. This cell line was generated from pre-made footprint-free human iPS cells with DOX inducible Ngn2 that has been stably integrated into the human AAVS1 “Safe Harbor” site, and provides a convenient means to differentiate human iPS cells into neurons rapidly and efficiently. Motor neuron differentiation was achieved using a modified 5-day strategy. […]
For analysis of TDP-43 cellular distribution, d14 motor neurons were lysed with Thermo Subcellular Protein Fractionation Kit for cultured cells and processed according to the manufacturer's instructions. […] Fluorescent secondary antibodies were used for band detection and the Kaleidoscope precision plus protein ladder for size estimation. iBright FL1500 imaging system and software were used to quantitate protein band signal. […]

[4] = test system: tau stress granules; assay: SY5Y-tT1 tau arsenite assay (tau stress granules per cell); conditions: SY5Y-tT1 cells, 2 hours compound, 90 minutes arsenite, 50% reduction of granules per cell, read-out: IC50, Inhibitor Activity of Tau Stress Granules
Description: Example 91: In Vitro Efficacy Assay of Exemplary Compounds—SY5Y-tT1 Tau Arsenite/Thapsigargin Assay
• Before harvesting cells—checked to see if cells are ~80% confluency in their flask • 1. Aspirated growth media from flask. • 2. Added 4 mL of (0.25%) trypsin-EDTA (REF: 25200-056) • 3. Placed in 37° C. incubator for 5 minutes. • 4. Removed from incubator and added 11 mL growth media, washing any remaining cells adhered to the bottom of the flask. • 5. Transferred cell containing media to a 50 mL conical tube and spun for 5 minutes at 800 rpm. • 6. Aspirated supernatant and added 5 mL of growth media to cell pellet, triturating to make a homogenous cell solution. • 7. After counting cells, followed one of these plating paradigms: • (A) If treating with arsenite, plated cells at […] with tetracycline solution (5 mg/mL) added to cell solution at 1:5000 • (B) If treating with thapsigargin, plated cells at 4,000 cells/well with tetracycline solution (5 mg/mL) added to cell solution at 1:5000 • 8. Incubated at 37° C. for 48 hours.
• Solubilized all compounds to 10 mM prior to making dilution plates • 1. To a 96-well U-bottom plate (Falcon Non-Tissue Culture Treated Plates REF: 351177) added 120 μL growth media to all 96 wells, with an additional 58.2 μL to row A. • 2. Added 1.8 μL of 10 mM compound stock to wells A1-11, adding 1.8 μL of 10 mM PERKi stock (Selleck Chemistry GSK2606414 Cat No. S7307) as the control. • 3. Serially diluted 60 μL from row A down through each row, finishing with 180 μL total volume in row H. • 4. Transferred 12.5 μL of each dilution plate well to the correlating wells in cell plate, being careful not to touch cells adhered to bottom of the plate. • 5. Incubated for 2 hours.
• 1. Added 720 μL of 0.05 M sodium arsenite solution (CAS #: 7784-46-5) to 10 mL of growth media for a final concentration of […] arsenite solution, mix well. • 2. Added 12.5 μL of arsenite solution to all wells of compounds treated plate intended for arsenite treatment. • 3. Incubated at 37° C. for 90 minutes.
• Before beginning this part of the protocol: • Made 1×PBS by diluting 10× stock (10×, Phosphate buffered saline, Fisher #BP399— • 4) in sterile deionized water. • Diluted paraformaldehyde (16% Paraformaldehyde solution, Electron Microscopy Sciences #15710-S) to 4% in 1×PBS. • Diluted Hoechst stain (Life Technologies #H3570) 1:10,000 in 1×PBS (1 μL Hoechst per 10 mL 1×PBS). • Both solutions were protected from light. • 1) After compound treatment, aspirated media from cell plates and gently added in 50 μL of 4% paraformaldehyde for 10 min protected from light at room temperature. • 2) Aspirated paraformaldehyde solution and gently added 50 μL of 1:10,000 Hoechst solution to each well and incubated for 10 min protected from light at room temperature. • 3) Aspirated Hoechst solution and gently added 100 μL 1×PBS. Cover the plate with aluminum film (VWR #60941-126). • 4) Stored at 4° C. or used immediately for imaging on ThermoFisher CX7 imager.
Exemplary compounds of the disclosed herein were evaluated for efficacy for inhibitor activity of tau stress granules in the arsenite assay and quantified as drug concentration providing a 50% reduction (IC50) of granules per cell is shown in Table 4.
In Table 4 below, A indicates an IC50 (μM)<0.5 μM, B indicates an IC50 (μM) 0.5 μM to <1 μM, C indicates an IC50 (μM) 1 μM to <2 μM, and D indicates an IC50 (μM) 2 μM to <6 μM.

[5] = test system: TDP-43 aggregation; assay: TDP-43 aggregation assay in SY5Y TDP-43WT cells (high content imaging); conditions: Homo sapiens, tetracycline induction 24 hrs, 1 hour compound pre-treatment, sodium arsenite 23 hrs, 8-point dose curve, percentage of cells with TDP-43 aggregates, read-out: IC50, Inhibition of TDP-43 Aggregation
How it was run: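 Tetracycline-inducible eGFP-tagged wild-type human TDP-43 in SH-SY5Y cells, induced 24 h ([…]), compound pre-treated 1 h, then sodium arsenite […] for 23 h. Fixed cells imaged; percentage of DAPI-counted cells with aggregates gives IC50 from 8-point curves.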

SMILES: CC(C)C[C@@H](C=O)NC(=O)[C@H](CC(C)C)NC(=O)[C@H](CC(C)C)NC(=O)OCc1ccccc1 [MG-132, reference compound] (Cbz-Leu-Leu-Leu-aldehyde)
- effect of stressor on cryptic splicing of STMN2, ELAVL3, PFKP (qPCR) ([1]; MG-132 1 μM): strong induction of cryptic splicing
- effect of stressor on normal transcript levels (qPCR) ([1]; MG-132 1 μM): decreased levels for normal STMN2 as well as the cryptic exon-disrupted splice junctions in PFKP and ELAVL3
- effect of stressor on nuclear TDP-43 staining (immunofluorescence) [2]: induced a loss of nuclear TDP-43 staining
- effect of stressor on TDP-43 distribution between fractions (immunoblot) [3]: significant change in TDP-43 distribution from the soluble, nuclear compartment to the insoluble fraction

SMILES: COc1ccc(C[C@H](N)C(=O)N[C@H]2[C@@H](O)[C@H](n3cnc4c(N(C)C)ncnc43)O[C@@H]2CO)cc1 [puromycin, reference compound]
- effect of stressor on splicing changes associated with TDP-43 loss of function (qPCR) [1]: failed to induce transcription changes consistent with TDP-43 loss of function

- IC50 [4]: 2 to 6 µM
- IC50 [5]: < 0.5 µM
SMILES: Cc1cc(-c2ccc3c(c2)CNCC3)sc1C(=O)N1CC[C@H](N)C1 [Compound 198, (S)-(3-aminopyrrolidin-1-yl)(3-methyl-5-(1,2,3,4-tetrahydroisoquinolin-7-yl)thiophen-2-yl)methanone]
